We go through nine compounds from US12458702B2 (NATIONAL TAIWAN UNIVERSITY, priority 2022, dated 2025).

One series relates to HCT-116. Nature of the series: Cytotoxicity by SRB assay in HCT-116 cells. In kind it is cell-based, human. The protocol: (§1) The fraction of cell survival was calculated as follows. Survival fraction=(OD treated−blank)/(OD control−blank). […] Each experiment was repeated three times.
Background: In SRB staining, fixed cells bind dye roughly in proportion to their protein.

Series [1] concerns CRC cell lines HCT-116 and HT-29. Description: Cytotoxicity against CRC cell lines, summary over both lines (SRB assay). In kind it is cell-based, human. Particulars: for cytotoxicity against CRC cell lines, in words: HCT-116 and HT-29, with or without GSH; for IC50: read-out: IC50 in CRC cells. The protocol: as §1
A further series relates to HT-29. Description: Cytotoxicity by SRB assay in HT-29 cells.
A short description of series [2]: Human plasma stability (RP-HPLC). The following applies: 95% human plasma, 37° C. In kind it is in vitro ADME. The protocol: To access human plasma stability, synthesized conjugates were prepared in 95% human plasma. […] The mixture was centrifuged at 13,000 rpm for 5 min. […] For compounds 30 and 31, they were dissolved in DMA and added GSH (11.2 mM or 11.2 μM) solution which was prepared in sodium acetate buffer (10 mM, pH 5.0) in the ratio of 50/40 (v/v, drug in DMA/GSH solution) for final GSH of 5 mM or 5 μM in pH 7.0, respectively. After incubation for the indicated time, samples were centrifuged to collect the clear supernatant and stored at −30° C. until analysis. RP-HPLC injections were carried out at the specified conditions, and the area of peak was integrated for further calculation.

Series [3] in a line: Stability and drug release in GSH (RP-HPLC). In kind it is in vitro ADME. The protocol: […] After incubation for the indicated time, samples were centrifuged to collect the clear supernatant and stored at −30° C. until analysis. RP-HPLC injections were carried out at the specified conditions, and the area of peak was integrated for further calculation.
[4] abbreviates: Homo sapiens, HCT-116, read-out: IC50 HCT-116 5 mM GSH, 48 h, 5 mM GSH.
Where [5] appears, read: Homo sapiens, HCT-116, 48 h, w/o GSH, read-out: IC50 HCT-116 w/o GSH.
Where [6] appears, read: Homo sapiens, HT-29, 48 h, read-out: IC50 HT-29 5 mM GSH.
Where [7] appears, read: Homo sapiens, HT-29, 48 h, read-out: IC50 HT-29 w/o GSH.
[8] abbreviates: 72 h, prepared in DMA, w/o GSH, read-out: IC50 HCT-116 w/o GSH.
[9] abbreviates: read-out: IC50 HCT-116 5 mM GSH, 72 h, prepared in DMA, 5 mM GSH.
Where [10] appears, read: read-out: IC50 HT-29 5 mM GSH, 48 h, prepared in DMA, 5 mM GSH.
Setting [11] is: read-out: IC50 HT-29 w/o GSH, 48 h, prepared in DMA, w/o GSH.
Setting [12] is: Homo sapiens, HCT-116, read-out: IC50 HCT-116 5 mM GSH, 72 h, prepared in DMA, 5 mM GSH.
[13] abbreviates: Homo sapiens, HCT-116, 48 h, prepared in DMSO, read-out: IC50 HCT-116.
Where [14] appears, read: Homo sapiens, HCT-116, 72 h, prepared in DMA, w/o GSH, read-out: IC50 HCT-116 w/o GSH.
The mark [15] stands for this setting: Homo sapiens, HT-29, 48 h, read-out: IC50 HT-29.

Where two headings read alike, the source gives them in different places. Bounds are passed on as bounds.

`O=C(CCCCCN1C(=O)CC(SCCOCCOCCOc2cc(O)c(C(=O)CCc3ccc(O)cc3)c(O[C@@H]3O[C@H](CO)[C@@H](O)C(O)[C@H]3O)c2)C1=O)OCn1cc(F)c(=O)[nH]c1=O` (stereo partly drawn) [Compound 4, (5-Fluoro-2,4-dioxo-3,4-dihydropyrimidin-1(2H)-yl)methyl 6-(3-((2-(2-(2-(3-hydroxy-4-(3-(4-hydroxyphenyl)propanoyl)-5-(((2S,3R,5S,6R)-3,4,5-trihydroxy-6-(hydroxymethyl)tetrahydro-2H-pyran-2-yl)oxy)phenoxy)ethoxy)ethoxy)ethyl)thio)-2,5-dioxopyrrolidin-1-yl)hexanoate]: the IC50 was more than 100 µM in the series on HCT-116 (setting [4]), 97.4 ± 20.3 µM in the series on HCT-116 (setting [5]), 93.6 ± 9.4 µM in the series with HT-29 (setting [6]) and more than 100 µM in the series with HT-29 (setting [7]). Moreover, in series [1], the “cytotoxicity against CRC cell lines, in words” value (shortened to “cytotoxicity”) is on record as “poorly cytotoxic”.

On to `CCc1c2c(nc3ccc(O)cc13)-c1cc3c(c(=O)n1C2)COC(=O)[C@]3(O)CC` [SN-38 (28), SN-38, reference compound], for which the IC50 with HCT-116 (48 h, prepared in DMSO, read-out: IC50 HCT-116) was 0.0549 ± 0.00386 µM; with HCT-116 (setting [8]) it was 0.00237 ± 4e-05 µM; in the series with HCT-116 (setting [9]), 0.00288 ± 8e-05 µM; in series [1] (HCT-116 and HT-29, Tables 2 and 3), 0.002 to 0.43 µM; with HT-29 (setting [10]), 0.0113 ± 0.00073 µM; with HT-29 (read-out: IC50 HT-29, 48 h, prepared in DMSO), 0.43 ± 1e-05 µM. Moreover, the IC50 with HT-29 (setting [11]) was found to be 0.0134 ± 0.0004 µM.

Take `CCc1c2c(nc3ccc(OC(=O)OCCSSCCOCCOCCOc4ccc(O)c(C(=O)CCc5ccc(O)cc5)c4O[C@@H]4O[C@H](CO)[C@@H](O)[C@H](O)[C@H]4O)cc13)-c1cc3c(c(=O)n1C2)COC(=O)[C@]3(O)CC` [Compound 30, (S)-4,11-diethyl-4-hydroxy-3,14-dioxo-3,4,12,14-tetrahydro-1H-pyrano[3′,4′:6,7]indolizino[1,2-b]quinolin-9-yl(2-((2-(2-(2-(4-hydroxy-3-(3-(4-hydroxyphenyl)propanoyl)-2-(((2S,3R,4S,5S,6R)-3,4,5-trihydroxy-6-(hydroxymethyl)tetrahydro-2H)pyran-2-yl)oxy)phenoxy)ethoxy)ethoxy)ethyl)disulfanyl)ethyl) carbonate]: the IC50 with HCT-116 (setting [8]) was 0.00244 ± 0.00017 µM; in the series with HCT-116 (setting [9]) it was 0.00257 ± 0.00013 µM; in the series on HT-29 (setting [10]) it was 0.0301 ± 0.0026 µM; with HT-29 (setting [11]), 0.0396 ± 0.00345 µM. Besides, in series [1], the “cytotoxicity” value is “less or similar cytotoxicity”. Moreover, the “half-life in human plasma” value in series [2] is reported as 20 min. For the same compound, in series [3] (5 mM GSH), the “release rate of SN-38” value was “about 60%”.

Regarding `O=C(CCc1ccc(O)cc1)c1c(O)cc(O)cc1O` [Phloretin (3), phloretin, reference compound], the IC50 in the series on HCT-116 (setting [12]) is 77.6 ± 3.42 µM; in the series with HCT-116 (setting [13]) it was more than 100 µM; with HCT-116 (setting [14]) it was more than 100 µM; in the series with HT-29 (setting [15]), more than 100 µM; with HT-29 (setting [6]) it was more than 100 µM; in the series with HT-29 (setting [7]), more than 100 µM.

Turning to `O=C(CCc1ccc(O)cc1)c1c(O)cc(O)cc1O[C@@H]1O[C@H](CO)[C@@H](O)[C@H](O)[C@H]1O` [Phlorizin (2), phlorizin, reference compound], the IC50 in the series with HCT-116 (setting [12]), in the series on HCT-116 (setting [13]), in the series on HCT-116 (setting [14]), in the series with HT-29 (setting [15]), with HT-29 (setting [6]) and in the series on HT-29 (setting [7]) was more than 100 µM throughout.

As for `O=C(CCCCCN1C(=O)CC(SCCOCCOCCOc2cc(O)c(C(=O)CCc3ccc(O)cc3)c(O)c2)C1=O)OCn1cc(F)c(=O)[nH]c1=O` (stereo not shown) [Compound 5, (5-Fluoro-2,4-dioxo-3,4-dihydropyrimidin-1(2H)-yl)methyl 6-(3-((2-(2-(2-(3,5-dihydroxy-4-(3-(4-hydroxyphenyl)propanoyl)phenoxy)ethoxy)ethoxy)ethyl)thio)-2,5-dioxopyrrolidin-1-yl)hexanoate], the IC50 with HCT-116 (setting [4]) was found to be 82.8 ± 4.18 µM; with HCT-116 (setting [5]) it was 75 ± 13.7 µM; with HT-29 (setting [6]), 86.9 ± 2.9 µM; in the series with HT-29 (setting [7]), 43.7 ± 5 µM. Also, in series [1], the “cytotoxicity” value is “poorly cytotoxic”. Further, in series [2], the “half-life in human plasma” value is 48 min. Besides, in series [3] (5 mM GSH, after 48 h), the “release of 5-FU, in words” value was “Little 5-FU was released”.

Regarding `O=C(CCc1cn(CCOCCOCCOc2cc(O)c(C(=O)CCc3ccc(O)cc3)c(O[C@@H]3O[C@H](CO)[C@@H](O)C(O)[C@H]3O)c2)nn1)OCn1cc(F)c(=O)[nH]c1=O` (stereo partly drawn) [Compound 8, (5-Fluoro-2,4-dioxo-3,4-dihydropyrimidin-1(2H)-yl)methyl 3-(1-(2-(2-(2-(3-hydroxy-4-(3-(4-hydroxyphenyl)propanoyl)-5-(((2S,3R,5S,6R)-3,4,5-trihydroxy-6-(hydroxymethyl)tetrahydro-2H-pyran-2-yl)oxy)phenoxy)ethoxy)ethoxy)ethyl)-1H-1,2,3-triazol-4-yl)propanoate], the IC50 in the series with HCT-116 (setting [5]) and in the series with HT-29 (setting [7]) was more than 100 µM throughout. For the same compound, the “cytotoxicity” value in series [1] was “poorly cytotoxic”.

Consider `O=C(CCCSSCCOCCOCCOc1cc(O)c(C(=O)CCc2ccc(O)cc2)c(O[C@@H]2O[C@H](CO)[C@@H](O)C(O)[C@H]2O)c1)OCn1cc(F)c(=O)[nH]c1=O` (stereo partly drawn) [Compound 6, (5-fluoro-2,4-dioxo-3,4-dihydropyrimidin-1(2H)-yl)methyl 4-((2-(2-(2-(3-hydroxy-4-(3-(4-hydroxyphenyl)propanoyl)-5-(((2S,3R,5S,6R)-3,4,5-trihydroxy-6-(hydroxymethyl)tetrahydro-2H-pyran-2-yl)oxy)phenoxy)ethoxy)ethoxy)ethyl)disulfanyl)butanoate], for which the IC50 came to 23.8 µM with HCT-116 (setting [4]), 54.9 µM in the series on HCT-116 (setting [5]), 8 ± 0.52 µM in the series on HT-29 (setting [6]) and 59.8 ± 7.93 µM with HT-29 (setting [7]). For the same compound, the half-life at 2.5 mM in series [3] (PBS containing GSH, pH 7.4, highly reductive environments, read-out: half-lives in highly reductive environments) is less than 300 min.

Turning to `O=C(CCc1ccc(O)cc1)c1c(O)cc(OCCOCCOCCS)cc1O` [Compound 17, 1-(2,6-Dihydroxy-4-(2-(2-(2-mercaptoethoxy)ethoxy)ethoxy)phenyl)-3-(4-hydroxyphenyl)propan-1-one], the IC50 is 15.9 ± 0.89 µM in the series with HCT-116 (setting [4]); 15.9 ± 0.89 µM with HCT-116 (setting [12]); 15.5 ± 0.72 µM in the series with HCT-116 (setting [13]); 15.5 ± 0.72 µM in the series with HCT-116 (setting [5]); 15.5 ± 0.72 µM in the series on HCT-116 (setting [14]); 15 to 30 µM in series [1] (Homo sapiens, HCT-116 and HT-29, over Tables 1 to 3). In addition, the IC50 was determined as 29.1 ± 6.14 µM in the series with HT-29 (setting [15]), 24.2 ± 0.4 µM in the series on HT-29 (setting [6]) and 29.1 ± 6.14 µM in the series on HT-29 (setting [7]).
